The values below come from article PMC11724075, “Small-molecule-induced ERBB4 activation to treat heart failure” (Nature Communications, 2025).

“And” between values parts separate entries of the source, which are not always exact repeats. Equal values may be shown once.

The subject of experiment [1] is mouse model of AngII-induced myocardial fibrosis. As to the kind of experiment: AngII-induced myocardial fibrosis mouse model, 4 weeks, Masson's trichrome fibrosis, wild type mice. It is filed as in vivo. On the set-up: key to Total fibrosis male in vivo WT with EF-1 / Total fibrosis female in vivo WT with EF-1 / Total fibrosis male in vivo WT with NA-1: fibrotic (blue-stained) area / total area. The procedure: Four weeks after implantation, cardiac ultrasound was performed, mice were euthanized, and hearts were collected. A similar set-up was used for the 1-week study (Alzet, model 1007D) in male mice (n = 9-10 mice in every group).
Hearts were fixed in 4% PFA, paraffin-embedded, and cut into 5-µm sections. Images were acquired with an Olympus BX43 microscope (Olympus Stream Motion Software) or a CELENA® S Digital Imaging System and analyzed with ImageJ 2.14.0 software. Collagen distribution was visualized by Masson’s trichrome staining. Cardiac total fibrosis was expressed as the ratio of positively stained fibrotic area (blue) to the total area and perivascular fibrosis as the ratio of fibrotic area to vascular lumen area. Scar size was determined by measuring the scar length over the […]. Hypertrophy and vascularisation were visualized via an isolectin-B4/WGA/DAPI staining. Quantification was performed by a person blinded to the treatment protocol.

In experiment [2] the test system is ERK1/2 phosphorylation (pERK1/2/ERK1/2). As to the kind of experiment: Western blot pERK1/2/ERK1/2 in iAMs. It is filed as cell-based, rat. The following applies: for pErk/Erk, relative to vehicle of the same time point: iAMs, single replicates; for phosphorylation of ERK1/2 in iAMs (in words): NRG1 10 nM or EF-1 32 µM. The procedure: Hearts of the aforementioned transgenic mice were removed immediately after the animals had been killed. Cells and heart tissue were collected in RIPA lysis buffer (Thermo Fisher Scientific, 89900) supplemented with protease inhibitors (Merck, 11836153001) and phosphatase inhibitors (Merck, 4906845001) and the lysates were centrifuged at 14,000 × g for 10 min. The supernatants were collected, supplemented with sample buffer, and incubated at 95 °C for 5 min. Protein quantification was done with Pierce^TM BCA Protein Assay Kits (Thermo Fisher, 23227) according to the manufacturer’s instructions. Equal protein amounts of clarified lysates (20 µg) were subsequently separated by sodium dodecyl sulfate (SDS) polyacrylamide gel electrophoresis (165 V, 400 mA, 60 min) and transferred onto polyvinylidene fluoride membranes by electroblotting (100 V, 400 mA, 90 min). Next, the membranes were incubated for 1 h with Li-Cor blocking buffer (Li-Cor, 927-60001) at RT in Tris-buffered saline (TBS), supplemented with 0.1% Tween (BIO-RAD, 1706531). Next, primary antibodies were added (see below and Table 1a) in Li-Cor blocking buffer supplemented with 0.1% Tween, and the membranes were incubated overnight at 4 °C on a shaker. Following washing with TBS-0.1% Tween, the membranes were incubated for 1 h at RT with corresponding IRDye-conjugated secondary antibodies (See below and Table 1b) in Li-Cor blocking buffer supplemented with […] and 0.1% Tween. The membrane was visualized with the Odessey imaging system.
Background: Immunoblotting shows a protein as a band on a membrane.

The test system of experiment [3] is iAMs. The experiment is described as follows: EdU proliferation assay in proliferating iAMs. It is filed as cell-based, rat. The following applies: for EdU-positive nuclei compared to the vehicle group (in words): EF-1 32 µM or NRG1 0.1 µM, 24 h; for In vitro EdU-positive cell count: individual replicates. How it is done: EdU proliferation assay was performed using the Click-iT^TM EdU Cell Proliferation Kit for Imaging (ThermoFisher Scientific, C10337) following the protocol. Proliferating iAMs were seeded at a density of 10^5 cells/well in proliferating medium in 24-well plates and incubated overnight. […] Afterwards, the cell culture media were then replaced with 10 µM EdU in proliferating medium and incubated for 24 h at 37 °C. Next, iAMs were fixed with 4% PFA for 30 min at 4 °C. Cells were washed thrice with PBS, permeabilized by incubation with 0.1% Triton X-100 for 10 min at RT and counterstained with DAPI. Images were obtained by fluorescence microscopy (Celena S).

Experiment [4] deals with T1, ERBB4/ERBB4 (Homo sapiens, UniProt Q15303).
T1 construct: host or cells: U2OS (osteosarcoma cells), PathHunter engineered line
T1 sequence (Q15303 26-1308): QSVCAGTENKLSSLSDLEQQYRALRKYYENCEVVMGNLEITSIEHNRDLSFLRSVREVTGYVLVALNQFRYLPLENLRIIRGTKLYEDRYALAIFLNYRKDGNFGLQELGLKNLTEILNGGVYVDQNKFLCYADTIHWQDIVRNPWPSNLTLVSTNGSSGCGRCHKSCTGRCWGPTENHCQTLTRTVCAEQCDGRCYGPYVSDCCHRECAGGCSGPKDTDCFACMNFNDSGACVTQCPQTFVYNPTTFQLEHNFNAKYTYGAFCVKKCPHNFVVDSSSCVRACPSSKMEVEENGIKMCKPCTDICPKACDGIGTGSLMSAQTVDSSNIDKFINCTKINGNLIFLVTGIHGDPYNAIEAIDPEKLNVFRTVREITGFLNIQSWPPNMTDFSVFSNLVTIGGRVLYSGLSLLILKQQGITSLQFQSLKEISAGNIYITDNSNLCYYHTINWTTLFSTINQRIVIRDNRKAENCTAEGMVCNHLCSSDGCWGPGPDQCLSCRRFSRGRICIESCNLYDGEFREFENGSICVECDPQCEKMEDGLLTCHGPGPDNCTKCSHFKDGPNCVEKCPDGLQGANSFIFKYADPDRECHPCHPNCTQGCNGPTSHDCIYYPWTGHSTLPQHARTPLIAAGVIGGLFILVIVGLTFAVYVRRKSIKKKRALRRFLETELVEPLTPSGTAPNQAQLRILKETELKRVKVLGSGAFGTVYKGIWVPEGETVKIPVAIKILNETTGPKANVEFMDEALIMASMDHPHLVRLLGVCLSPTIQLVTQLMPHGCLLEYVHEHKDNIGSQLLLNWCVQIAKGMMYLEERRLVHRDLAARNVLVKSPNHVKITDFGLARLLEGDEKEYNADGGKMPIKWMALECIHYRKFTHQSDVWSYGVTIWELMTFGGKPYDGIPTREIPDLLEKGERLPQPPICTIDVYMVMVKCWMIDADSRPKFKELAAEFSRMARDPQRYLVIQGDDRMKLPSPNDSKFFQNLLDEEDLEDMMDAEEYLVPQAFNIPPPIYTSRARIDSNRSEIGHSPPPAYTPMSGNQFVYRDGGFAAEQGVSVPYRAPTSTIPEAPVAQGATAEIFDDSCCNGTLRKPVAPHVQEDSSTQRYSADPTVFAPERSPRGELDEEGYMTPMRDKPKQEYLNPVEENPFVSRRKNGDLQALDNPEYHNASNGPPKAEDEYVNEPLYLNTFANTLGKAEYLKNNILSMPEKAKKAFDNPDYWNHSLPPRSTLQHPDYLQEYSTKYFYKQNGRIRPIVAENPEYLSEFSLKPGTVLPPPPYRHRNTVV
T1 sequence (Q15303 26-1308): as above
As to the kind of experiment: NRG1 dose-response in ERBB4/ERBB4 dimerization assay with co-administration of EF-1. It is filed as cell-based. How it is done: U2OS ERBB4/ERBB4 dimerization cells were seeded at a density of 5 × 10^4 cells/well in 100 µL Cell Plating 0 Reagent, in white 96-well plates (PerkinElmer, 6005680) and incubated for 24 h at 37 °C, 5% CO2. […] Next, 110 µL PathHunter Flash Detection Reagent was added to each well and incubated at RT for 1 h after which the luminescence signal was measured using the Luminoskan Ascent (Thermo Fisher Scientific). Dose-response curves of the compounds were performed in 2-fold (0.0625–32 µM). The same experimental set-up was used for the U2OS ERBB2/ERBB4, U2OS ERBB2/ERBB3 and U2OS ERBB1/ERBB1 dimerization cell lines. […]
(b) DRC showing t he effect of NRG1 (full line with full circle) on the […]
1x10-6 M NRG1; n=5 biological replicates for NRG1 + EF -1 10 µM for all concentrations of NRG1, except […]
concentrations of NRG1, except n=2 for 3x10-7 M and 1x10-6 M NRG1). All data are presented as mean ± SD. Source data are provided as a Source Data file . CPD, compound; DRC; dose response curve; FC, fold change; F-NRG1, fluorescent ly labeled NRG1; M, molar concentration; NRG1, neuregulin-1; Veh, […]

Where [5] appears, read: female wild type mice, AngII/EF-1 group, individual animals.
[6] abbreviates: male wild type mice, AngII/EF-1 group, individual animals.
Where [7] appears, read: male wild type mice, EF-1 group (no AngII), individual animals.

For `O=C(NC1CC1)C(Sc1nc2ccccc2c(=O)n1C1CCCC1)c1ccccc1` (stereo not drawn) [EF-1], the “Perivascular fibrosis female in vivo WT with EF-1” value in experiment [1] (setting [5]) is 1.006 and 0.6567 and 0.4251 and 0.5106 and 0.5866 and 0.41 and 0.775 and 0.451. Moreover, in experiment [1] (setting [5]), the “Total fibrosis female in vivo WT with EF-1” value is 0.56 and 1.25 and 0.75 and 1.11 and 0.5 and 0.41 and 1.42 and 0.66. Also, the “effect on AngII-induced interstitial and perivascular fibrosis (in words)” value in experiment [1] (male and female wild type mice, EF-1 2 mg/kg/day, 4 weeks) was “significantly prevented both interstitial and perivascular fibrosis”. For the same molecule, the “Perivascular fibrosis male in vivo WT with EF-1” value in experiment [1] (setting [6]) was 2.195 and 0.9604 and 0.7595 and 1.184 and 2.0179; in experiment [1] (setting [7]), 0.7074 and 0.782 and 0.418 and 0.8908. Further, the “Total fibrosis male in vivo WT with EF-1” value was 1.541 and 0.4939 and 0.5555 and 0.9884 and 1.07 in experiment [1] (setting [6]); 0.8052 and 0.5165 and 0.1613 and 0.2053 in experiment [1] (setting [7]). For the same molecule, in experiment [2] (EF-1), the “time of peak levels of ERK1/2 phosphorylation” value is given as 15 min. Also, the “pErk/Erk, relative to vehicle of the same time point” value is 1.078 and 1.057 and 1.137 and 0.8985 in experiment [2] (EF-1 32 µM, 0 minutes); 1.66 and 1.416 and 1.274 and 1.578 in experiment [2] (EF-1 32 µM, 15 minutes); 1.162 and 1.018 and 1.18 and 0.9894 in experiment [2] (EF-1 32 µM, 60 minutes); 0.9869 and 1.003 and 0.9414 and 0.8187 in experiment [2] (EF-1 32 µM, 120 minutes); 0.9968 and 1.428 and 1.0991 and 0.9249 in experiment [2] (EF-1 32 µM, 240 minutes). Moreover, the “phosphorylation of ERK1/2 in iAMs (in words)” value in experiment [2] was “transient phosphorylation of ERK1/2”. Moreover, the “EdU-positive nuclei compared to the vehicle group (in words)” value in experiment [3] is on record as “significant decrease in EdU-positive nuclei”. Also, the “In vitro EdU-positive cell count” value in experiment [3] was 0.7127 and 0.7822 and 0.8185 and 0.7982 and 0.7621. The “Chemiluminescence-based competition assay with NRG1 and EF-1, signal” value in experiment [4] (EF-1 1 µM, NRG1 1e-11 M) is 0; in experiment [4] (EF-1 1 µM, NRG1 3e-7 M), 96.5132 and 159.12 and 135.867 and 151.14; in experiment [4] (EF-1 1 µM, NRG1 1e-6 M), 151.834 and 150.068 and 166.317; in experiment [4] (EF-1 10 µM, NRG1 1e-11 M), 0; in experiment [4] (EF-1 10 µM, NRG1 3e-7 M), 204.858 and 319.881 and 318.093 and 238.507; in experiment [4] (EF-1 10 µM, NRG1 1e-6 M) it was 299.545. For the same molecule, the “Chemiluminescence-based competition assay with NRG1 and EF-1, signal” value in experiment [4] (EF-1 32 µM, NRG1 1e-11 M) is 0; in experiment [4] (EF-1 32 µM, NRG1 1e-7 M), 179.706 and 213.306 and 260.377 and 233.656 and 250.186; in experiment [4] (EF-1 32 µM, NRG1 3e-7 M) it was 277.077 and 253.156; in experiment [4] (EF-1 32 µM, NRG1 1e-6 M) it was 257.842 and 279.551. Further, in experiment [4] (EF-1 32 µM), the “potentiation of NRG1-induced ERBB4 homodimerization” value was 299.5%.

Consider `Cc1sc2nc(SC(C)C(=O)NCc3ccc4c(c3)OCO4)n(-c3ccccc3)c(=O)c2c1C` (stereo not drawn) [NA-1], for which, in experiment [1] (AngII/NA-1, individual animals), the “Perivascular fibrosis male in vivo WT with NA-1” value is 1.271 and 2.289 and 2.187 and 2.2768; the “Total fibrosis male in vivo WT with NA-1” value is 7.18 and 11.9815 and 8.108 and 8.95. Further, the “effect on AngII-induced interstitial and perivascular fibrosis (in words)” value in experiment [1] (male wild type mice, NA-1 2 mg/kg/day) is given as “did not significantly prevent interstitial or perivascular AngII-induced fibrosis”.

For the molecule neuregulin-1 [NRG1], the “phosphorylation of ERK1/2 in iAMs (in words)” value in experiment [2] is reported as “time-dependent phosphorylation of ERK1/2”. Also, the “pErk/Erk, relative to vehicle of the same time point” value is 0.7394 and 1.087 and 0.6444 in experiment [2] (NRG1 10 nM, 0 minutes); 2.343 and 1.9112 and 1.767 in experiment [2] (NRG1 10 nM, 15 minutes); 3.329 and 2.139 and 1.769 in experiment [2] (NRG1 10 nM, 60 minutes); 1.461 and 2.784 and 4.448 in experiment [2] (NRG1 10 nM, 120 minutes); 3.3773 and 3.181 in experiment [2] (NRG1 10 nM, 240 minutes). The “EdU-positive nuclei compared to the vehicle group (in words)” value in experiment [3] is “significant decrease in EdU-positive nuclei”. The “In vitro EdU-positive cell count” value in experiment [3] was 0.7207 and 0.8932 and 0.8227 and 0.7581 and 0.7231. The “Chemiluminescence-based competition assay with NRG1 and EF-1, signal” value was 0 in experiment [4] (NRG1 1e-11 M, no EF-1); 101.055 and 98.9454 and 97.307 and 102.693 and 100 and 86.6131 and 109.42 in experiment [4] (NRG1 1e-7 M, no EF-1); 95.7195 and 99.6882 and 104.291 and 93.5081 and 90.5392 and 120.599 and 107.787 in experiment [4] (NRG1 3e-7 M, no EF-1); 99.5216 and 99.741 and 109.693 and 98.1524 in experiment [4] (NRG1 1e-6 M, no EF-1).
